Test results published in US11707454B2, “Topical roflumilast formulation having antifungal properties” (ARCUTIS BIOTHERAPEUTICS, INC., priority 2020, dated 2023).
Converted amounts (≈) assume the structure as drawn. Where two headings read alike, the source gives them in different places.

Legend:
Format in all cases: cell-based
C. albicans (ATCC 90028) = assay: in vitro micro-dilution susceptibility assay (method of Rojas); details: Candida albicans, read-out: minimum inhibition concentration (MIC)
Procedure: (§1) The in vitro susceptibility of Malassezia species to roflumilast was determined utilizing three Candida species as internal control isolates for all testing. These three isolates were C. albicans American Type Culture Collection (ATCC) 90028, C. krusei (ATCC 6258) and C. parapsilosis (ATCC 22019). In addition to testing roflumilast all susceptibility assays were conducted using ketoconazole and hydrocortisone as positive and negative control compounds, respectively. All assays were placed within a humidified incubator set to 32° C. for a total of seven days. Each assay was evaluated after 12 hours of incubation and, every 24 hours post incubation for a total of seven days. The assays were evaluated for visual growth of each pathogen in the no treatment control as well as determination of minimum inhibition concentration (MIC) values. The concentration that provides a 3-log10 CFU/mL reduction in fungal burden from baseline at day 0 was defined as the minimum fungicidal concentration (MHC) and was determined by quantifying fungal burdens found in the microplate at day seven.
(§2) The method of Rojas (Rojas F D, et al. Antifungal susceptibility of Malassezia furfur, Malassezia sympodialis, and Malassezia globose to azole drugs and amphotericin B evaluated using a broth microdilution method. 2014. Medical Mycology. 52:641-646) was used in which the liquid broth medium was RPMI 1640 with added 1.8% glucose, 1% peptone, 0.5% ox-bile, 0.5% malt extract, 1% glycerol, 0.5% Tween 40 and 0.05% Tween 80. Round bottom 96 well microplates were used. The inoculums were prepared in sterile saline and diluted to a final targeted concentration of 0.5×10^5 to 2.5×10^5 CFU/mL in supplemented RPMI. […] For the internal control isolate C. parapsilosis (ATCC 22019) the expected CLSI values for ketoconazole of 0.03-0.25 (at 24 hours) and 0.06-0.5 (at 48 hours) did agree with the 2-day value (Table A) of 0.5.

C. krusei (ATCC 6258) = assay: as above; details: Pichia kudriavzevii, read-out: minimum inhibition concentration (MIC)
Procedure: as §1, §2

[1] = tested on: C. parapsilosis (ATCC 22019); assay: as above; details: Lodderomyces parapsilosis, C. parapsilosis (22019), read-out: minimum inhibition concentration (MIC)
Procedure: as §1, §2

M. furfur (ATCC 12078) = assay: as above; details: for MIC: Malassezia furfur, read-out: minimum inhibition concentration (MIC)
Procedure: as §1, §2

M. furfur (ATCC 14521) = assay: as above
Procedure: as §1, §2

M. furfur (ATCC 44344) = assay: as above; details: for MIC: Malassezia furfur, read-out: minimum inhibition concentration (MIC)
Procedure: as §1, §2

[2] = tested on: M. globose (ATCC MYA-4889); assay: as above; details: for MIC: read-out: minimum inhibition concentration (MIC)
Procedure: as §1, §2

[3] = tested on: M. restricta (ATCC MYA-4611); assay: as above; details: for MIC: read-out: minimum inhibition concentration (MIC)
Procedure: as §1, §2

Candida species = assay: in vitro micro-dilution susceptibility assay, summary; details: method of Rojas
Procedure: as §1, with “seven. […]” for “seven.”

Malassezia species = assay: as above; details: compared to the hydrocortisone negative control
Procedure: as §1, with “seven. […]” for “seven.”

## O=C(Nc1c(Cl)cncc1Cl)c1ccc(OC(F)F)c(OCC2CC2)c1 [Roflumilast, N-(3,5-dichloropyrid-4-yl)-3-cyclopropylmethoxy-4-difluoromethoxybenzamid-e]
C. albicans (ATCC 90028); ATCC90028, 12 h, Time 0.5 days
  MIC: > 1020 µg/mL
C. albicans (ATCC 90028); ATCC90028, 24 h, Time 1 days
  MIC: > 1020 µg/mL
C. albicans (ATCC 90028); ATCC90028, 48 h, Time 2 days
  MIC: > 1020 µg/mL
C. albicans (ATCC 90028); ATCC90028, 72 h, Time 3 days
  MIC: > 1020 µg/mL
C. albicans (ATCC 90028); ATCC90028, 96 h, Time 4 days
  MIC: > 1020 µg/mL
C. albicans (ATCC 90028); ATCC90028, 120 h, Time 5 days
  MIC: > 1020 µg/mL
C. albicans (ATCC 90028); ATCC90028, 144 h, Time 6 days
  MIC: > 1020 µg/mL
C. albicans (ATCC 90028); ATCC90028, 168 h, Time 7 days
  MIC: > 1020 µg/mL
C. krusei (ATCC 6258); ATCC6258, 12 h, Time 0.5 days
  MIC: 128 µg/mL (≈ 317 µM)
C. krusei (ATCC 6258); ATCC6258, 24 h, Time 1 days
  MIC: 1020 µg/mL (≈ 2540 µM)
C. krusei (ATCC 6258); ATCC6258, 48 h, Time 2 days
  MIC: > 1020 µg/mL
C. krusei (ATCC 6258); ATCC6258, 72 h, Time 3 days
  MIC: > 1020 µg/mL
C. krusei (ATCC 6258); ATCC6258, 96 h, Time 4 days
  MIC: > 1020 µg/mL
C. krusei (ATCC 6258); ATCC6258, 120 h, Time 5 days
  MIC: > 1020 µg/mL
C. krusei (ATCC 6258); ATCC6258, 144 h, Time 6 days
  MIC: > 1020 µg/mL
C. krusei (ATCC 6258); ATCC6258, 168 h, Time 7 days
  MIC: > 1020 µg/mL
[1]; ATCC22019, 12 h, Time 0.5 days
  MIC: 1020 µg/mL (≈ 2540 µM)
[1]; ATCC22019, 24 h, Time 1 days
  MIC: 1020 µg/mL (≈ 2540 µM)
[1]; ATCC22019, 48 h, Time 2 days
  MIC: > 1020 µg/mL
[1]; ATCC22019, 72 h, Time 3 days
  MIC: > 1020 µg/mL
[1]; ATCC22019, 96 h, Time 4 days
  MIC: > 1020 µg/mL
[1]; ATCC22019, 120 h, Time 5 days
  MIC: > 1020 µg/mL
[1]; ATCC22019, 144 h, Time 6 days
  MIC: > 1020 µg/mL
[1]; ATCC22019, 168 h, Time 7 days
  MIC: > 1020 µg/mL
M. furfur (ATCC 12078); ATCC12078, 48 h, Time 2 days
  MIC: 128 µg/mL (≈ 317 µM)
M. furfur (ATCC 12078); ATCC12078, 72 h, Time 3 days
  MIC: 128 µg/mL (≈ 317 µM)
M. furfur (ATCC 12078); ATCC12078, 96 h, Time 4 days
  MIC: 128 µg/mL (≈ 317 µM)
M. furfur (ATCC 12078); ATCC12078, 120 h, Time 5 days
  MIC: 128 µg/mL (≈ 317 µM)
M. furfur (ATCC 12078); ATCC12078, 144 h, Time 6 days
  MIC: 128 µg/mL (≈ 317 µM)
M. furfur (ATCC 12078); ATCC12078, 168 h, Time 7 days
  MIC: 128 µg/mL (≈ 317 µM)
M. furfur (ATCC 12078); Time 0.5 days
  minimum inhibition concentration (MIC): NGO
M. furfur (ATCC 12078); Time 1 days
  minimum inhibition concentration (MIC): NGO
M. furfur (ATCC 14521); Time 0.5 days
  minimum inhibition concentration (MIC): NGO
M. furfur (ATCC 14521); Time 1 days
  minimum inhibition concentration (MIC): NGO
M. furfur (ATCC 44344); ATCC44344, 48 h, Time 2 days
  MIC: 64 µg/mL (≈ 159 µM)
M. furfur (ATCC 44344); ATCC44344, 72 h, Time 3 days
  MIC: 64 µg/mL (≈ 159 µM)
M. furfur (ATCC 44344); ATCC44344, 96 h, Time 4 days
  MIC: 64 µg/mL (≈ 159 µM)
M. furfur (ATCC 44344); ATCC44344, 120 h, Time 5 days
  MIC: 64 µg/mL (≈ 159 µM)
M. furfur (ATCC 44344); ATCC44344, 144 h, Time 6 days
  MIC: 64 µg/mL (≈ 159 µM)
M. furfur (ATCC 44344); ATCC44344, 168 h, Time 7 days
  MIC: 64 µg/mL (≈ 159 µM)
M. furfur (ATCC 44344); Time 0.5 days
  minimum inhibition concentration (MIC): NGO
M. furfur (ATCC 44344); Time 1 days
  minimum inhibition concentration (MIC): NGO
[2]; 48 h, Time 2 days
  MIC: 32 µg/mL (≈ 79.4 µM)
[2]; 72 h, Time 3 days
  MIC: 32 µg/mL (≈ 79.4 µM)
[2]; 96 h, Time 4 days
  MIC: 128 µg/mL (≈ 317 µM)
[2]; 120 h, Time 5 days
  MIC: 128 µg/mL (≈ 317 µM)
[2]; 144 h, Time 6 days
  MIC: 128 µg/mL (≈ 317 µM)
[2]; 168 h, Time 7 days
  MIC: 128 µg/mL (≈ 317 µM)
[2]; Time 0.5 days
  minimum inhibition concentration (MIC): NGO
[2]; Time 1 days
  minimum inhibition concentration (MIC): NGO
[3]; 48 h, Time 2 days
  MIC: 32 µg/mL (≈ 79.4 µM)
[3]; 72 h, Time 3 days
  MIC: 32 µg/mL (≈ 79.4 µM)
[3]; 96 h, Time 4 days
  MIC: 32 µg/mL (≈ 79.4 µM)
[3]; 120 h, Time 5 days
  MIC: 32 µg/mL (≈ 79.4 µM)
[3]; 144 h, Time 6 days
  MIC: 32 µg/mL (≈ 79.4 µM)
[3]; 168 h, Time 7 days
  MIC: 64 µg/mL (≈ 159 µM)
[3]; Time 0.5 days
  minimum inhibition concentration (MIC): NGO
[3]; Time 1 days
  minimum inhibition concentration (MIC): NGO
Candida species
  antifungal activity against the tested Candida species: did not demonstrate antifungal activity
Malassezia species
  antifungal activity against Malassezia species: provides antifungal activity against Malassezia species
